Reference: ChEMBL document CHEMBL5543136, “Discovery of Novel Heterotricyclic Compounds as DNA-Dependent Protein Kinase (DNA-PK) Inhibitors with Enhanced Chemosensitivity, Oral Bioavailability, and the Ability to Potentiate Cancer Immunotherapy” (J Med Chem, 2024)
pIC50: −log10 of the molar value. One block for each compound: values may come before it. The source made the active and inactive calls. No cut-off for these calls is given here.

Assays:
[1] = tested on: B16-F10; assay: Antiproliferative activity against mouse B16-F10 cells assessed as reduction in cell viability incubated for 48 hrs by CCK-8 assay; format: functional, cell-based; settings: B16-F10, 48 h
[2] = target: DNA-dependent protein kinase catalytic subunit (Homo sapiens, UniProt P78527); assay: Inhibition of human full-length DNA-PK using EPPLSQEAFADLWKK as substrate incubated for 60 mins in presence of ATP by ADP-Glo kinase assay
[3] = tested on: Jurkat; assay: Antiproliferative activity against human Jurkat cells assessed as reduction in cell viability incubated for 48 hrs by CCK-8 assay; format: functional, cell-based
[4] = tested on: CT26; assay: Antiproliferative activity against mouse CT26 cells assessed as reduction in cell viability incubated for 48 hrs by CCK-8 assay; format: functional, cell-based; settings: CT26, 48 h
[5] = Toxicity in C57BL/6 mouse implanted with mouse B16-F10 cells assessed as effect on body weight at 50 mg/kg, ip administered once daily for 13 days; format: organism-based; settings: in vivo, 312 h, time 13 day
[6] = tested on: B16-F10; assay: Immunomodulatory activity in mouse B16-F10 cells implanted in C57BL/6 mouse assessed as percentage of CD3 positive CD4 positive cells in tumor at 50 mg/kg, ip administered once daily for 13 days by flow cytometric analysis (reference value: 0.86%); format: functional; settings: time 13 day
[7] = tested on: B16-F10; assay: Antitumor activity against mouse B16-F10 cells implanted in C57BL/6 mouse assessed as tumor growth inhibition at 50 mg/kg, ip administered once daily for 13 days relative to control; format: functional; settings: B16-F10, 312 h, time 13 day, read-out: TGI
[8] = tested on: B16-F10; assay: Immunomodulatory activity in mouse B16-F10 cells implanted in C57BL/6 mouse assessed as percentage of CD3 positive CD8 positive cells in tumor at 50 mg/kg, ip administered once daily for 13 days by flow cytometric analysis (reference value: 0.99%); format: functional; settings: time 13 day
[9] = tested on: B16-F10; assay: Synergistic antiproliferative activity against mouse B16-F10 cells assessed as reduction in cell viability incubated for 48 hrs in presence of doxorubicin by CCK-8 assay; format: functional, cell-based; settings: B16-F10, 48 h
[10] = tested on: CT26; assay: Synergistic antiproliferative activity against mouse CT26 cells assessed as reduction in cell viability incubated for 48 hrs in presence of doxorubicin by CCK-8 assay; format: functional, cell-based; settings: CT26, 48 h
[11] = tested on: Jurkat; assay: Synergistic antiproliferative activity against human Jurkat cells assessed as reduction in cell viability incubated for 48 hrs in presence of doxorubicin by CCK-8 assay; format: functional, cell-based
[12] = tested on: Cell membrane; assay: Induction of mitochondrial membrane potential loss in human Jurkat cells at 1 uM incubated for 24 hrs by JC-1 staining based flow cytometric analysis; format: cell membranes
[13] = tested on: HepG2; assay: Inhibition of DNA damage repair in human HepG2 cells assessed as reduction in gammaH2AX expression level at 20 uM by Western blot analysis; format: functional, cell-based
[14] = tested on: CT26; assay: Antiproliferative activity against mouse CT26 cells assessed as inhibition of cell growth incubated for 48 hrs by CCK-8 assay relative to control; format: functional
[15] = tested on: B16-F10; assay: Antiproliferative activity against mouse B16-F10 cells assessed as inhibition of cell growth incubated for 48 hrs by CCK-8 assay relative to control; format: functional
[16] = tested on: CT26; assay: Antitumor activity against mouse CT26 cells implanted in BALB/c mouse assessed as tumor growth inhibition at 2.5 mg/kg, iv administered once a week for 21 days relative to control; format: functional; settings: CT26, 504 h, time 21 day, read-out: TGI
[17] = tested on: CT26; assay: Antitumor activity against mouse CT26 cells implanted in BALB/c mouse assessed as tumor growth inhibition at 10 mg/kg, ip administered once daily for 21 days relative to control; format: functional; settings: CT26, 504 h, time 21 day, read-out: TGI
[18] = tested on: Jurkat; assay: Antiproliferative activity against human Jurkat cells assessed as inhibition of cell growth incubated for 48 hrs by CCK-8 assay relative to control; format: functional
[19] = Toxicity in BALB/c mouse implanted with mouse CT26 cells assessed as weight loss at 2.5 mg/kg, iv administered once a week for 21 days; format: organism-based; settings: in vivo, 504 h, time 21 day
[20] = tested on: Jurkat; assay: Induction of cell cycle arrest in human Jurkat cells assessed as decrease in S phase cells at 1 uM incubated for 24 hrs in presence of doxorubicin by PI staining based flow cytometric analysis; format: functional
[21] = tested on: Jurkat; assay: Induction of cell cycle arrest in human Jurkat cells assessed as increase in G2/M phase cells at 1 uM incubated for 24 hrs in presence of doxorubicin by PI staining based flow cytometric analysis; format: functional
[22] = tested on: Cell membrane; assay: Induction of mitochondrial membrane potential loss in human Jurkat cells at 1 uM incubated for 24 hrs in presence of doxorubicin by JC-1 staining based flow cytometric analysis; format: cell membranes

DNA-dependent protein kinase catalytic subunit, sequence (P78527 whole entry): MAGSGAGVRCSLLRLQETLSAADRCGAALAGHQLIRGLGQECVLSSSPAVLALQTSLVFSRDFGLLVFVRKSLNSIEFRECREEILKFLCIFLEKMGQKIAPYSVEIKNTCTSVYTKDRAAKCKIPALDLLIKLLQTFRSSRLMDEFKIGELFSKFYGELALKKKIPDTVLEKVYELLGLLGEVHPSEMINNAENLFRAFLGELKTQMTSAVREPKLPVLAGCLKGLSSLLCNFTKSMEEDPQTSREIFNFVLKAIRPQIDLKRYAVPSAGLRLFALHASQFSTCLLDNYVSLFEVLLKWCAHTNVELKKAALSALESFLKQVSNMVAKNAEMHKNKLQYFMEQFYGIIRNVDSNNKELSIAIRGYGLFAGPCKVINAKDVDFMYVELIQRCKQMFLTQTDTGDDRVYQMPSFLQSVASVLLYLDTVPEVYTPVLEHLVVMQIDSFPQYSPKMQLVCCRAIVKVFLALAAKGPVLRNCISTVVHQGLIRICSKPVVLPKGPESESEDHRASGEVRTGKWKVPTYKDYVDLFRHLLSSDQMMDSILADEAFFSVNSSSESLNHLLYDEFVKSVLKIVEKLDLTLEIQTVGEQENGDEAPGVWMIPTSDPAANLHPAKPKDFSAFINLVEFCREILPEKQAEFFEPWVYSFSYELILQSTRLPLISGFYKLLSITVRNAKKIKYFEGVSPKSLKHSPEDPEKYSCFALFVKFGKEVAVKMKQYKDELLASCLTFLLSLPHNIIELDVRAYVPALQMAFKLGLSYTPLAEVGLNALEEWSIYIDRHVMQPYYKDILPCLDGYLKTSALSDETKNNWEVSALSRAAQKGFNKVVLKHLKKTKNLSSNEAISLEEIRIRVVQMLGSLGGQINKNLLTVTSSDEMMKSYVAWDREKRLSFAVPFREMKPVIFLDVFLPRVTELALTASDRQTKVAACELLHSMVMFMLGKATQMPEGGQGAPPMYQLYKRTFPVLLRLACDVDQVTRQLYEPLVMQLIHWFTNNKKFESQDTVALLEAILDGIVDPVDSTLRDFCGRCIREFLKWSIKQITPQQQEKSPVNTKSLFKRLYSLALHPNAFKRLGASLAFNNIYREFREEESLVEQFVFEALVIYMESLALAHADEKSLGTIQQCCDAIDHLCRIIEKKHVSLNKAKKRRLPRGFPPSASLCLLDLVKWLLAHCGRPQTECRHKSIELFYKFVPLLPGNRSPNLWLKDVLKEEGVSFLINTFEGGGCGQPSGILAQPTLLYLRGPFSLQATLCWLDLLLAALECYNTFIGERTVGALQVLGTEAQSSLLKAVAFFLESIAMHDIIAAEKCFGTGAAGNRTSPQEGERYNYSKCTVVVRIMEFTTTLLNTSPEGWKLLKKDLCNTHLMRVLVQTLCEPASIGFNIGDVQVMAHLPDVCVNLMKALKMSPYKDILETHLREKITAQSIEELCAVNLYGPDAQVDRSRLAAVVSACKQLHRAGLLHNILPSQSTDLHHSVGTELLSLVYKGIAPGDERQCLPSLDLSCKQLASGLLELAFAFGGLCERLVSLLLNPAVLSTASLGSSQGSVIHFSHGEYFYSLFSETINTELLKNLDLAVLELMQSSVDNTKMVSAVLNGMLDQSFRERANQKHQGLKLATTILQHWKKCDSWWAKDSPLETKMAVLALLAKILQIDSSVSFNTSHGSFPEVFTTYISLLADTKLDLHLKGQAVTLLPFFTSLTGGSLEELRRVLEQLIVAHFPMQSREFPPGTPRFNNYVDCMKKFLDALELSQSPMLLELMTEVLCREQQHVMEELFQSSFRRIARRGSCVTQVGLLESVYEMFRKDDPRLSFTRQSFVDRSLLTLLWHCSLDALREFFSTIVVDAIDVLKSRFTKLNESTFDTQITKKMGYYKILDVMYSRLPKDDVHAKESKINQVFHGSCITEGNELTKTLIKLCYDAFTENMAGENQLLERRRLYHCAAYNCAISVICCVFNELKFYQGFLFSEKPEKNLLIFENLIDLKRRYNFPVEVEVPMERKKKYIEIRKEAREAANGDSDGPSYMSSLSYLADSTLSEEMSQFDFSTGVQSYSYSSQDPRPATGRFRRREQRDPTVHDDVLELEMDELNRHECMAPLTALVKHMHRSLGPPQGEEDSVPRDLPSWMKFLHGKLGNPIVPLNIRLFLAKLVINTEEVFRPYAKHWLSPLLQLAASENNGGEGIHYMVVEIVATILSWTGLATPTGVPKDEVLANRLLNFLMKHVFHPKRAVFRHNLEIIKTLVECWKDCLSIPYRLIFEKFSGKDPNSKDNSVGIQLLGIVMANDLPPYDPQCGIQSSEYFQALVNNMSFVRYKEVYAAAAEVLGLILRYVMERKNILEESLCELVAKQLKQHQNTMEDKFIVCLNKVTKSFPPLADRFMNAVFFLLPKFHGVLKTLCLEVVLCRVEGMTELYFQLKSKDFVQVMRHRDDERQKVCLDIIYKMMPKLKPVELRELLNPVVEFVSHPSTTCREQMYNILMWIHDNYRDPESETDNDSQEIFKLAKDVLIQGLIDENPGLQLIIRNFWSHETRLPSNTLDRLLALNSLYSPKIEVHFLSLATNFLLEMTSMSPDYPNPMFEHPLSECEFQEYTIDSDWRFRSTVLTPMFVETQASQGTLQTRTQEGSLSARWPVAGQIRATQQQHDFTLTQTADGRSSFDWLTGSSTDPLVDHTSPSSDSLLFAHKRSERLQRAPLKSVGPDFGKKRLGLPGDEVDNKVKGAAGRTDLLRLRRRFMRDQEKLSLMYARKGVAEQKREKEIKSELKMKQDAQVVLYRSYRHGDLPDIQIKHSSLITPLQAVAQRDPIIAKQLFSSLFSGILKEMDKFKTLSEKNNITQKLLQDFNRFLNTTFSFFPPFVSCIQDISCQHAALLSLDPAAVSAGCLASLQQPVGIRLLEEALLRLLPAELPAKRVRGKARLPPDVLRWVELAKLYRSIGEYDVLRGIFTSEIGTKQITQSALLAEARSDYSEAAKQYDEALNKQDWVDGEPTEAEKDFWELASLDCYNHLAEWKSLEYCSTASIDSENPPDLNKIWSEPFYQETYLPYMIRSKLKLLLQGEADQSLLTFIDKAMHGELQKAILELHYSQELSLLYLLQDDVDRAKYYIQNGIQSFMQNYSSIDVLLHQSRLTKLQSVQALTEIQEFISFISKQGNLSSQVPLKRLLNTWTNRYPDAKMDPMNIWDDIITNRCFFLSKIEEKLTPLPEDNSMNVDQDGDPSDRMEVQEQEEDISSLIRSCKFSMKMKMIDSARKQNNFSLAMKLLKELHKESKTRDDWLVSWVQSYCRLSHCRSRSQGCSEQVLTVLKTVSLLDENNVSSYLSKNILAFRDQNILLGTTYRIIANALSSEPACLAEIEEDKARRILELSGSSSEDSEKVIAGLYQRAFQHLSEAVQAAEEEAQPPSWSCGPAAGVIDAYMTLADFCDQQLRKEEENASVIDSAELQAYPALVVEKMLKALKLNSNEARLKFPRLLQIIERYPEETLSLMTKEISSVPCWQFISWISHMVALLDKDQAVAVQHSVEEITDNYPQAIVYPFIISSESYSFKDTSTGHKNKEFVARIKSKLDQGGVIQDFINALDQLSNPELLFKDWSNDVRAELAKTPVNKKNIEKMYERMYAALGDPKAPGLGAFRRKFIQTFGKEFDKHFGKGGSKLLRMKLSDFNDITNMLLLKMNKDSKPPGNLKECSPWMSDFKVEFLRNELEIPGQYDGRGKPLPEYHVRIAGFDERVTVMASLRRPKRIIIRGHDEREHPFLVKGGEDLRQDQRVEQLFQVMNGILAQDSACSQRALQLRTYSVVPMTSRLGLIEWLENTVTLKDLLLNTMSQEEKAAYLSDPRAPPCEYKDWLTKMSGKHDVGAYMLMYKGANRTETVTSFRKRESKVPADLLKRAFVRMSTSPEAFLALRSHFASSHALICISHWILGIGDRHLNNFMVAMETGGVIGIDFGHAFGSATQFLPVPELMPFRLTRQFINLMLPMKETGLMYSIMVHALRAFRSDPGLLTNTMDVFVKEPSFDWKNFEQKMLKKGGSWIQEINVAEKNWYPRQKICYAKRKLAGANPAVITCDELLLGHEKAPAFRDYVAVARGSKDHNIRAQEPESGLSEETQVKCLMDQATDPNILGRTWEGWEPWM

SMILES: Cc1cnc(-c2cnn(C)c2)cc1Nc1ncc2c(n1)N(C1CCOCC1)Cc1nncn1-2
pIC50 [1]: < 4.30 | pIC50 [2]: 7.58 | pIC50 [3]: < 4.30 | pIC50 [4]: < 4.30

SMILES: Cc1cc2ncnn2cc1Nc1ncc2c(n1)N(C1CCOCC1)Cc1nnc(C)n1-2
pIC50 [1]: < 4.30 | pIC50 [2]: 8.08 | pIC50 [3]: 4.60 | pIC50 [4]: < 4.30

SMILES: Cc1c(COc2cc(OCc3cccc(C#N)c3)c(CN3CCCCC3C(=O)NCCNC(=O)CCCC[C@@H]3SC[C@@H]4NC(=O)N[C@@H]43)cc2Cl)cccc1-c1ccccc1 (stereo partly specified)
Activity [5]: Non-Toxic | Activity [6]: 3.23% | inhibition in vivo at 50 mg/kg [7]: 48.2% | Activity [8]: 3.53%

SMILES: Cc1cnc(-c2cnn(C)c2)cc1Nc1ncc2c(n1)N(C1CCOCC1)Cc1nnc(C)n1-2
pIC50 [1]: < 4.30 | pIC50 [2]: 7.67 | pIC50 [3]: 5.24 | pIC50 [4]: < 4.30

SMILES: c1cnc2cc(Nc3ncc4c(n3)N(C3CCOCC3)Cc3nncn3-4)ccc2n1
pIC50 [1]: < 4.30 | pIC50 [2]: 7.15 | pIC50 [3]: 5.39 | pIC50 [4]: 4.34

SMILES: COc1cccc2c1C(=O)c1c(O)c3c(c(O)c1C2=O)C[C@@](O)(C(=O)CO)C[C@@H]3O[C@H]1C[C@H](N)[C@H](O)[C@H](C)O1 [DOXORUBICIN]
inhibition (INH) [14]: 9.75% | inhibition (INH) [15]: 6.2% | inhibition in vivo at 2.5 mg/kg [16]: 25.9% | inhibition in vivo at 10 mg/kg [17]: 30.8% | inhibition (INH) [18]: 23% | Activity [19]: Non-Toxic

SMILES: Cc1cnc(-c2cnn(C)c2)cc1Nc1ncc2c(n1)N(C1CCOCC1)Cc1nccn1-2
pIC50 [1]: < 4.30 | pIC50 [2]: 7.53 | pIC50 [3]: 4.82 | pIC50 [4]: < 4.30

SMILES: Cc1cc2ncnn2cc1Nc1ncc2c(n1)N(C1CCOCC1)Cc1nncn1-2
pIC50 [1]: < 4.30 | pIC50 [2]: 8.25 | pIC50 [3]: < 4.30 | pIC50 [4]: < 4.30

SMILES: COc1ccc(Nc2ncc3c(n2)N(C2CCOCC2)Cc2nnc(C)n2-3)c(C)c1
pIC50 [1]: < 4.30 | pIC50 [2]: 7.82 | pIC50 [3]: < 4.30 | pIC50 [4]: < 4.30

Now from value to compound, other results behind:

pIC50 [1]: < 4.30 | pIC50 [2]: 8.44 | pIC50 [3]: 5.03 | pIC50 [4]: < 4.30
SMILES: Cc1cc2ncnn2cc1Nc1ncc2c(n1)N(C1CCOCC1)Cc1nccn1-2

pIC50 [9]: 4.66 | pIC50 [10]: 4.82 | pIC50 [1]: 4.38 | pIC50 [2]: 8.05 | pIC50 [11]: 6.29 | pIC50 [3]: 5.85 | pIC50 [4]: 4.51
SMILES: COc1ccc(Nc2ncc3c(n2)N(C2CCOCC2)Cc2nccn2-3)c(C)c1

pIC50 [9]: 5.19 | pIC50 [10]: 5.82 | pIC50 [1]: 4.89 | pIC50 [2]: 9.21 | pIC50 [11]: 7.30 | pIC50 [3]: 6.10 | pIC50 [4]: 5.28
SMILES: Cc1cc2cccnc2cc1Nc1ncc2c(n1)N(C1CCOCC1)Cc1nnc(C)n1-2

pIC50 [9]: 4.69 | pIC50 [10]: 5.03 | pIC50 [1]: 4.33 | pIC50 [11]: 6.96 | pIC50 [3]: 4.94 | pIC50 [4]: 4.48 | Activity [12]: inactive
SMILES: Cc1cc2ncnn2cc1Nc1ncc2c(n1)N(C1CCOCC1)CC(=O)N2C
inhibition [13]: Active

pIC50 [9]: 4.94 | pIC50 [10]: 5.17 | pIC50 [1]: 4.47 | pIC50 [11]: 7.05 | pIC50 [3]: 4.91 | pIC50 [4]: 4.73 | Activity [22]: Active | Activity [12]: inactive
SMILES: Cc1cc2ncnn2cc1Nc1ncc2c(n1)n(C1CCOCC1)c(=O)n2C [AZD-7648]
Activity [20]: Active | Activity [21]: Active | inhibition [13]: Active

pIC50 [9]: 4.57 | pIC50 [10]: 5.01 | pIC50 [1]: 4.57 | pIC50 [2]: 7.29 | pIC50 [11]: 6.77 | pIC50 [3]: 6.05 | pIC50 [4]: 4.71
SMILES: Cc1nnc2n1-c1cnc(Nc3ccc4nccnc4c3)nc1N(C1CCOCC1)C2

pIC50 [9]: 5.12 | pIC50 [10]: 5.51 | pIC50 [1]: 4.71 | pIC50 [2]: 9.46 | pIC50 [11]: 7.40 | pIC50 [3]: 6.15 | pIC50 [4]: 5.05
SMILES: Cc1cc2cccnc2cc1Nc1ncc2c(n1)N(C1CCOCC1)Cc1nccn1-2

pIC50 [9]: 4.68 | pIC50 [10]: 4.83 | pIC50 [1]: 4.50 | pIC50 [2]: 7.20 | pIC50 [11]: 6.68 | pIC50 [3]: 6.10 | pIC50 [4]: 4.56
SMILES: c1cn2c(n1)CN(C1CCOCC1)c1nc(Nc3ccc4nccnc4c3)ncc1-2
